≈ marks a conversion by molar mass, not a printed value.
Tests used:
P. inhibens = assay: Antibacterial activity (growth inhibition, OD600); type: cell-based, Phaeobacter inhibens DSM 17395; conditions: 48 h
Experimental: (§1) To assess antimicrofouling activity, we selected five marine bacterial species as models: Marinobacter hydrocarbonoclasticus DSM 8798 (ATCC 49840), C. marina DSM 4741, Phaeobacter inhibens DSM 17,395, Pseusooceanicola batsensis DSM 15,984, and Micrococcus luteus DSM 20030 (ATCC 4698) ([Michael et al., 2016]). These strains, sourced from DSMZ (Leibniz Institute DSMZ—German Collection of Microorganisms and Cell Cultures), were cultured in liquid marine broth (Carl Roth GmbH, Karlsruhe, Germany) with agitation at 180 rpm or on agar-supplemented marine broth. Incubation temperatures were set at 28°C for M. hydrocarbonoclasticus and Cobetia marina, 30°C for P. inhibens and P. batsensis, while M. luteus was maintained at 37°C in Brain Heart Infusion broth (BHI, Becton Dickinson, GmbH, Heidelberg, Germany) under similar agitation conditions.
(§2) The antibacterial efficacy of compounds (1) and (2) was assessed in 96-well polystyrene flat-bottom microplates (Nunclon Delta Surface, Thermo Scientific, Roskilde, Denmark) following established procedures ([Bauermeister et al., 2019]). In the initial screening, bacterial overnight cultures were diluted to an optical density (OD600nm) of 0.2 and incubated statically at appropriate temperatures. The cultures were treated with the following final concentrations per well: 31.25, 15.60, 7.81, 3.91, 1.95, and 0.98 μg/mL (2-fold serial dilutions) of the compounds, solubilized in DMSO, or left untreated. After 24 h (M. hydrocarbonoclasticus, C. marina) or 48 h (P. batsensis, P. inhibens, M. luteus) incubation, optical density at 600 nm (OD600) was measured using a Molecular Devices Spectra Max 190. Growth inhibition percentages were calculated relatively to untreated bacterial species, using DMSO as a negative control. CuSO4 (0.16 μg/mL), a recognized antifouling agent, was used as positive control. All assays were conducted in triplicate, and the results represent the mean and standard error of the mean (SEM). Statistical analysis was carried out using GraphPad Prism 8.0.2 (San Diego, CA, United States), employing one-way ANOVA followed by Dunnett’s multiple comparisons test against the negative control.

P. batsensis = assay: Antibacterial activity (growth inhibition, OD600); type: cell-based, Pseudo-oceanicola batsensis DSM 15984; conditions: 48 h; for inhibition at 15.6 µg/mL: 15.60 µg/mL
Experimental: as §1, §2

M. hydrocarbonoclasticus = assay: Antibacterial activity (growth inhibition, OD600); type: cell-based, Marinobacter hydrocarbonoclasticus DSM 8798; conditions: 24 h
Experimental: as §1, §2

M. luteus = assay: Antibacterial activity (growth inhibition, OD600); type: cell-based, Micrococcus luteus DSM 20030; conditions: 48 h
Experimental: as §1, §2

[1] = tested on: M. galloprovincialis plantigrade larvae; assay: Mussel plantigrade larvae anti-settlement bioassay; type: in vivo, Mytilus galloprovincialis; conditions: 15 h acute exposure, 95% confidence limits in brackets; for EC50: Mytilus galloprovincialis, 15 h, read-out: EC50 [Conf. Limits] anti-settlement
Experimental: The in vivo antimacrofouling activity of compounds (1) and (2) was evaluated against mussel M. galloprovincialis adhesive larvae (plantigrades) in an acute bioassay. Juvenile mussel aggregates were harvested from the intertidal rocky shore during low spring tides at Memória beach, Matosinhos, Portugal. In the laboratory, precisely before the bioassays, mussel plantigrade larvae were meticulously screened and isolated from the juvenile aggregates using a binocular microscope (Olympus SZX2-ILLT, Hamburg, Germany). The isolated larvae were then washed with filtered seawater to eliminate organic debris, and competent plantigrade larvae, characterized by foot exploratory behavior, were selected for the exposure bioassays, following established protocols ([Almeida et al., 2017]; [Almeida et al., 2020]; [Antunes et al., 2019]; [Mabrouk et al., 2020]). Plantigrades were exposed in 24-well polystyrene plates for 15 h in darkness at 18°C. DMSO served as the solvent for the testing compounds in stock and working solutions. The DMSO concentration in the tested solutions was consistently maintained at 0.1%. Each condition was replicated in four wells, with five larvae per well. Two negative controls, one with ultra-pure water and other with DMSO were included in all bioassays, along with a positive control using 0.16 μg/mL CuSO4, as a reference antifouling agent. The anti-settlement bioactivity was assessed based on the presence or absence of fixed byssal threads produced by each individual larva for all tested conditions. […] EC50 values for each compound were calculated using Probit regression analysis. Significance was considered at p < 0.01, and 95% lower and upper confidence limits (95% LCL; UCL). The software IBM SPSS Statistics 28 was used for statistical analysis. The therapeutic ratio (LC50/EC50) was employed to evaluate the effectiveness versus the toxicity of the compounds ([Qian et al., 2009]; [Almeida and Vasconcelos, 2015]).

Aliivibrio fischeri = assay: Inhibition of bioluminescence (ISO 11348-3 micro adaptation); type: cell-based; conditions: Aliivibrio fischeri
Experimental: The in vivo evaluation of compounds (1) and (2) for acute toxicity was performed towards marine bacterium Aliivibrio fischeri, and planktonic crustacean Daphnia magna. The chronic ecotoxicity tests were evaluated using algae Pseudokirchneriella subcapitata and Phaeodactylum tricornutum.
The inhibition of bioluminescence of the marine bacterium A. fischeri, were studied following a micro adaptation of the standard procedure ISO 11348-3 (“Water Quality-Determination of the inhibitory effect of water samples on the light emission of Vibrio fischeri - Luminescent bacteria test–using freeze-dried bacteria method”). Briefly, frozen lyophilized bacterial cells (Abraxis, Warminster, PA, United States) were reconstituted in Reconstitution Solution, supplied by the manufacturer of the Abratox kit (Abraxis). Madeirone (1) and neomarinone (2) were dissolved in DMSO and tested at the concentrations of 100, 50, 25, 12.5, 6.25, 3.13, and 1.56 μg/mL. The emitted luminescence was measured using a luminometer at time 0 min and at different exposure times (5, 15 and 30 min) and the percentage of inhibition of bioluminescence was determined. Each experiment was performed in duplicate and the results of three independent experiments with <10% SD are presented. Phenol was used as a positive control.

Row | Compound | Growth inhibition (%) P. inhibens (P. inhibens; 0.98 µg/mL) | Growth inhibition (%) P. inhibens (P. inhibens; 1.95 µg/mL) | Growth inhibition (%) P. inhibens (P. inhibens; 3.91 µg/mL) | Growth inhibition (%) P. inhibens (P. inhibens; 7.81 µg/mL) | Growth inhibition (%) P. inhibens (P. inhibens; 15.60 µg/mL) | inhibition at 1.95 µg/mL (P. batsensis) | inhibition at 3.91 µg/mL (P. batsensis) | inhibition at 7.81 µg/mL (P. batsensis) | inhibition at 15.6 µg/mL (P. batsensis) | inhibition at 31.25 µg/mL (P. batsensis) | Growth inhibition (%) M. hydrocarbonoclasticus (M. hydrocarbonoclasticus; 0.98 µg/mL) | Growth inhibition (%) M. hydrocarbonoclasticus (M. hydrocarbonoclasticus; 1.95 µg/mL) | Growth inhibition (%) M. hydrocarbonoclasticus (M. hydrocarbonoclasticus; 3.91 µg/mL) | Growth inhibition (%) M. hydrocarbonoclasticus (M. hydrocarbonoclasticus; 7.81 µg/mL) | Growth inhibition (%) M. hydrocarbonoclasticus (M. hydrocarbonoclasticus; 15.60 µg/mL) | Growth inhibition (%) M. luteus (M. luteus; 15.60 µg/mL) | EC50 [Conf. Limits] anti-settlement [1] | EC50 [1] | Inhibition (%) A. fischeri (bioluminescence) (Aliivibrio fischeri; 50 µg/mL) | Inhibition (%) A. fischeri (bioluminescence) (Aliivibrio fischeri; 100 µg/mL) | other results
1 | CC1=CCC[C@@H](C)[C@]1(C)CC[C@@]1(C)c2c(O)cc3c(c2O[C@@H]1C)C(=O)C=C(CO)C3=O (relative stereo) [compound 1, madeirone] | N.I. | N.I. | N.I. | N.I. | N.I. | 26.6 ± 0.8% | 31 ± 0.7% | 35.9 ± 0.5% | > 40% | > 40% | N.I. | N.I. | N.I. | N.I. | N.I. | N.I. | 1.755 (1.308–5.492) µg/mL | 1.76 µg/mL (≈ 4.15 µM) | 15.1% | 49.2% | inhibition at 31.25 µg/mL (P. inhibens; Phaeobacter inhibens, 31.25 µg/mL): 24.3 ± 0.5%; inhibition at 0.98 µg/mL (P. batsensis; 0.98 µg/mL): 20.7 ± 1.1%; Growth inhibition (%) M. hydrocarbonoclasticus (M. hydrocarbonoclasticus; 31.25 µg/mL): N.I.; Growth inhibition (%) M. luteus (M. luteus; 0.98 µg/mL): N.I.; Growth inhibition (%) M. luteus (M. luteus; 1.95 µg/mL): N.I.; Growth inhibition (%) M. luteus (M. luteus; 3.91 µg/mL): N.I.; Growth inhibition (%) M. luteus (M. luteus; 7.81 µg/mL): N.I.; inhibition at 15.6 µg/mL (M. luteus; Micrococcus luteus, 15.60 µg/mL): 9.2%; inhibition at 31.25 µg/mL (M. luteus; Micrococcus luteus, 31.25 µg/mL): 20 ± 0.5%
2 | CC1=CCC[C@@H](C)[C@]1(C)CC[C@@]1(C)c2c(O)cc3c(c2O[C@@H]1C)C(=O)C(C)=C(O)C3=O [compound 2, neomarinone] | N.I. | N.I. | N.I. | N.I. | N.I. | 0.3 ± 0.5% | 4.2 ± 0.3% | 0% | 0.9 ± 0.4% | 11.1 ± 0.4% | N.I. | N.I. | N.I. | N.I. | N.I. | N.I. | 0.119 (0.015–0.253) µg/mL | 0.12 µg/mL (≈ 0.283 µM) | 25.0% | 37.3% | Growth inhibition (%) P. inhibens (P. inhibens; 31.25 µg/mL): N.I.; Growth inhibition (%) P. batsensis (P. batsensis; 0.98 µg/mL): N.I.; inhibition at 31.25 µg/mL (M. hydrocarbonoclasticus; Marinobacter nauticus, 31.25 µg/mL): 4.2 ± 0.8%; Growth inhibition (%) M. luteus (M. luteus; 31.25 µg/mL): N.I.; inhibition at 0.98 µg/mL (M. luteus; Micrococcus luteus, 0.98 µg/mL): 1.8 ± 0.4%; inhibition at 1.95 µg/mL (M. luteus; Micrococcus luteus, 1.95 µg/mL): 3.8 ± 1.7%; inhibition at 3.91 µg/mL (M. luteus; Micrococcus luteus, 3.91 µg/mL): 9 ± 0.9%; inhibition at 7.81 µg/mL (M. luteus; Micrococcus luteus, 7.81 µg/mL): 6.8 ± 1%

Reference: PMC11306024, “Novel metabolite madeirone and neomarinone extracted from Streptomyces aculeoletus as marine antibiofilm and antifouling agents” (Frontiers in Chemistry, 2024)
